ChEMBL document CHEMBL3046269, “The repelling effect of plant secondary metabolites on water voles, Arvicola amphibius” (2013)
Calls of active or inactive are those of the source. The calls are words filed in the database; no cut-off is given here.

Experiments:
[1] = test system: Arvicola amphibius; assay: Herbivore repellent activity against adult Arvicola amphibius assessed as time required to enter the test box with apple pieces for first time by T-maze test (reference value: 438.43 +/-312.37 secs); format: functional
[2] = test system: Arvicola amphibius; assay: Herbivore repellent activity against adult Arvicola amphibius assessed as duration of stay within test box with apple pieces by T-maze test (reference value: 59.20 +/-31.75%); format: functional
[3] = test system: Arvicola amphibius; assay: Herbivore repellent activity against adult Arvicola amphibius assessed as time required to enter the test box with apple pieces for first time by T-maze test (reference value: 277.50 +/-166.07 secs); format: functional
[4] = test system: Arvicola amphibius; assay: Herbivore repellent activity against adult Arvicola amphibius assessed as duration of stay within test box with apple pieces by T-maze test (reference value: 59.19 +/-19.83%); format: functional
[5] = test system: Arvicola amphibius; assay: Herbivore repellent activity against adult Arvicola amphibius assessed as decrease in frequency of entry of test box with apple pieces by T-maze test; format: functional, organism-based
[6] = test system: Arvicola amphibius; assay: Herbivore repellent activity against adult Arvicola amphibius assessed as duration of stay within test box with apple pieces by T-maze test (reference value: 85.30 +/-13.79%); format: functional
[7] = test system: Arvicola amphibius; assay: Herbivore repellent activity against adult Arvicola amphibius assessed as time required to enter the test box with apple pieces for first time by T-maze test (reference value: 268.50 +/-417.85 secs); format: functional
[8] = test system: Arvicola amphibius; assay: Herbivore repellent activity against adult Arvicola amphibius assessed as duration of stay within test box with apple pieces by T-maze test (reference value: 56.72 +/-13.89%); format: functional
[9] = test system: Arvicola amphibius; assay: Herbivore repellent activity against adult Arvicola amphibius assessed as time required to enter the test box with apple pieces for first time by T-maze test (reference value: 380.25 +/-321.70 secs); format: functional
[10] = test system: Arvicola amphibius; assay: Herbivore repellent activity against adult Arvicola amphibius assessed as duration of stay within test box with apple pieces by T-maze test (reference value: 75.53 +/-16.57%); format: functional
[11] = test system: Arvicola amphibius; assay: Herbivore repellent activity against adult Arvicola amphibius assessed as time required to enter the test box with apple pieces for first time by T-maze test (reference value: 240.75 +/-184.07 secs); format: functional

CCCS [1-PROPANETHIOL]
Time [1]: 996.29 s
Activity [2]: 40.8%

CC(C)=CCC/C(C)=C/CO [GERANIOL]
Time [3]: 326.38 s
Activity [4]: 40.8%

CCCCCCCCCC(C)=O [METHYL NONYL KETONE]
inhibition [5]: Active
Activity [6]: 14.7%
Time [7]: 888.38 s

CCCCCCCCC(=O)O [NONANOATE]
Activity [8]: 43.28%
Time [9]: 507.75 s

CCCCC(=O)O [VALERIC ACID]
Activity [10]: 24.47%
Time [11]: 769.13 s
